In article PMC5216056 (Nature Communications, 2017):
“And” between values parts separate entries of the source, which are not always exact repeats. Equal entries are not always repeated. “Also recorded” adds a separate entry of the source. Where two headings read alike, the source gives them in different places.

Legend:
in vitro [1] = settings: both, human, microsomes, pH 7.4
[2] = test system: sigma (non-selective) (h); assay type: binding, human; settings: 10 µM
5-HT1A (h) = target: T1, 5-HT1A (h) (Homo sapiens, UniProt P08908); assay: CEREP panel; assay type: binding
T1 construct: CEREP (contract assay)
T1 sequence (P08908 whole entry): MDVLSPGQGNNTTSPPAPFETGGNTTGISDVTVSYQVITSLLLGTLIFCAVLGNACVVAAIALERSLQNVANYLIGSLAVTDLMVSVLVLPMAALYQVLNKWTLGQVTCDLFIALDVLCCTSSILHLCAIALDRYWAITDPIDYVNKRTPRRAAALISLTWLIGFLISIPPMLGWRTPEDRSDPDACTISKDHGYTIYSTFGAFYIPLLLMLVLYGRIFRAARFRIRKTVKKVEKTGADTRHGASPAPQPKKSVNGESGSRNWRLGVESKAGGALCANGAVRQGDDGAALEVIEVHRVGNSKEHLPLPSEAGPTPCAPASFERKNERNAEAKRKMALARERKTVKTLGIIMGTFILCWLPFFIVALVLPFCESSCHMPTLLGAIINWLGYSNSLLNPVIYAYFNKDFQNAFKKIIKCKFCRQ

5-HT2A (h) = target: T2, 5-HT2A (h) (Homo sapiens, UniProt P28223); assay: CEREP panel; assay type: binding; settings: for % inhibition 5-HT2A (h): 10 µM
T2 construct: CEREP (contract assay)
T2 sequence (P28223 whole entry): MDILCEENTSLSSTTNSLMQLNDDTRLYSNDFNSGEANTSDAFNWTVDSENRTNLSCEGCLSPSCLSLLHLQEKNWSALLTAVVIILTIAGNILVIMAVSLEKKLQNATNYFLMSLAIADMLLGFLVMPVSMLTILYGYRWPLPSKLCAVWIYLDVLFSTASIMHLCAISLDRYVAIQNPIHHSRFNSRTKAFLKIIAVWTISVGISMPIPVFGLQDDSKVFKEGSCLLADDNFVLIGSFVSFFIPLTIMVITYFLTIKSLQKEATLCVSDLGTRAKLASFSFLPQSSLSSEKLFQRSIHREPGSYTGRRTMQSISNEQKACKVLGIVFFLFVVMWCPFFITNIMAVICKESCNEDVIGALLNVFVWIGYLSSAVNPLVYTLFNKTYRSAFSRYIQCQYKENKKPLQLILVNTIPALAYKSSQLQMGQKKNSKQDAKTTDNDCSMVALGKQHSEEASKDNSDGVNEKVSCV

M4 (h) = target: T3, M4 (h) (Homo sapiens, UniProt P08173); assay: CEREP panel; assay type: binding
T3 construct: CEREP (contract assay)
T3 sequence (P08173 whole entry): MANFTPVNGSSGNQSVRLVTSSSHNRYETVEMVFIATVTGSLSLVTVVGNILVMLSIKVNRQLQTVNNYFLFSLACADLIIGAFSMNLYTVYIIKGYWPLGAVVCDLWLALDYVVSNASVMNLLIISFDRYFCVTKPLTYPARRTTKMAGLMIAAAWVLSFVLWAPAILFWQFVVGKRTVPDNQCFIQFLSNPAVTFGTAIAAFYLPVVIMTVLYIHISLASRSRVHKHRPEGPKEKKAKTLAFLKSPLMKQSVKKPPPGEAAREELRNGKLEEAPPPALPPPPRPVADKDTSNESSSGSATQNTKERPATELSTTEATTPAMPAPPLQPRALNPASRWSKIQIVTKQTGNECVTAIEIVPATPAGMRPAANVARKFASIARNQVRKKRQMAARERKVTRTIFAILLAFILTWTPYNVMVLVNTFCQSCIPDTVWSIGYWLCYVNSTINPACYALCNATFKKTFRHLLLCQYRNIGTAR

H1 (h) = target: T4, H1 (h) (Homo sapiens, UniProt P35367); assay: CEREP panel; assay type: binding; settings: 10 µM
T4 construct: CEREP (contract assay)
T4 sequence (P35367 whole entry): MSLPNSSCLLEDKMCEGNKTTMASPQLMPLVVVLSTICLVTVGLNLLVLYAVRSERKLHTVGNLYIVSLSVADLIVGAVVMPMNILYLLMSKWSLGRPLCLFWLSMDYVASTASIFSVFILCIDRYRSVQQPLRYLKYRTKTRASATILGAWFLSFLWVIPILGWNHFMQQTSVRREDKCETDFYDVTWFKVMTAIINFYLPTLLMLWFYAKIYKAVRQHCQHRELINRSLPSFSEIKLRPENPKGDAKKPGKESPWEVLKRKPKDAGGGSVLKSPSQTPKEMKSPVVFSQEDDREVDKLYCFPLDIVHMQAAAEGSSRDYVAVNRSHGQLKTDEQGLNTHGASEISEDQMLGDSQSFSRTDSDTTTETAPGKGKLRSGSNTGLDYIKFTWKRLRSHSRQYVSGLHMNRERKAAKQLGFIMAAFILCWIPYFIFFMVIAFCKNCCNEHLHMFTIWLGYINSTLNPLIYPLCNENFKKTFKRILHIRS

[3] = not given; remark: listed apart in the source
D1 (h) = target: T5, D1 (h) (Homo sapiens, UniProt P21728); assay: CEREP panel; assay type: binding; settings: for % inhibition D1 (h): 10 µM
T5 construct: CEREP (contract assay)
T5 sequence (P21728 whole entry): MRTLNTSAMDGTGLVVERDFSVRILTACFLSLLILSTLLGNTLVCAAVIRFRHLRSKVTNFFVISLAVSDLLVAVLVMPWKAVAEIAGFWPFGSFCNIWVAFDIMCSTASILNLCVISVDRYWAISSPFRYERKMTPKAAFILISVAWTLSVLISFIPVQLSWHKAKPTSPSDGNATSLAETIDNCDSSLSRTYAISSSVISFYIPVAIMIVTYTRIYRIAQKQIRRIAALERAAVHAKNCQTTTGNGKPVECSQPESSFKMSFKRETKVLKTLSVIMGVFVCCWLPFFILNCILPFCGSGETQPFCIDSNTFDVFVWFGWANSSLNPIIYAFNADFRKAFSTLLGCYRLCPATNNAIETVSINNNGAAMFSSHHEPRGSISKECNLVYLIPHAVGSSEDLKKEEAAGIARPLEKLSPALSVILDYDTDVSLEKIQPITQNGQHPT

FP (h) = target: T6, FP (h) (Homo sapiens, UniProt P43088); assay: CEREP panel; assay type: binding; settings: for % inhibition FP (h): 10 µM
T6 construct: CEREP (contract assay)
T6 sequence (P43088 whole entry): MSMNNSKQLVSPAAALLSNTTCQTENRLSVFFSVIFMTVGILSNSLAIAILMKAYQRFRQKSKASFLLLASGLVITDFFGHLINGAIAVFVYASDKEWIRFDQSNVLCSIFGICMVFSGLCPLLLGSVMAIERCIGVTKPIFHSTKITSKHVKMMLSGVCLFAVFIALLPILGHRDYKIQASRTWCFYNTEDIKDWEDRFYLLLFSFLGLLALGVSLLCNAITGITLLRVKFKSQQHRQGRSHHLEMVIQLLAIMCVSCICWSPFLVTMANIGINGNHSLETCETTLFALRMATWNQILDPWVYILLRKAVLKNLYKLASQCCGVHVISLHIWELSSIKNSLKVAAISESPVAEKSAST

COX2 (h) = target: T7, COX2 (h) (Homo sapiens, UniProt P35354); assay: CEREP panel, enzyme and cell-based assays; assay type: biochemical; settings: 10 µM
T7 construct: CEREP (contract assay)
T7 sequence (P35354 18-604): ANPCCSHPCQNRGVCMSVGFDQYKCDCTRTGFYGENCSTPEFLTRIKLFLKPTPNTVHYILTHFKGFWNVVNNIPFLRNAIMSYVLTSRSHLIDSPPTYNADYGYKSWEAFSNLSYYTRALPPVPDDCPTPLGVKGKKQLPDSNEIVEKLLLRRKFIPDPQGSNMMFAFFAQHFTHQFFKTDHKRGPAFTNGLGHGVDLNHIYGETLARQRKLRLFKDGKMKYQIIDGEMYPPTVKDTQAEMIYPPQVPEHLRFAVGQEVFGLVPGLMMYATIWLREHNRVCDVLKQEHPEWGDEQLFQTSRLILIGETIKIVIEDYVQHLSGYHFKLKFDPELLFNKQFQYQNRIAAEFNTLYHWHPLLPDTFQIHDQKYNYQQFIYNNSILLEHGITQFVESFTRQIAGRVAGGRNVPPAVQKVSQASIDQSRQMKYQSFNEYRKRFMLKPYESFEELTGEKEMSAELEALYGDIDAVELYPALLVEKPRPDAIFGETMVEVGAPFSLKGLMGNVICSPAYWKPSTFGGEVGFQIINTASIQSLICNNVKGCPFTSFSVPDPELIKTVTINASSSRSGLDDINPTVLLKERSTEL

Cl- channel (GABA-gated) = assay: CEREP panel; assay type: binding; settings: 10 µM
[4] = Pharmacokinetics, oral administration in mice; assay type: in vivo, mouse
C57BL6/J mice [5] = assay: Triad assay: catalepsy; assay type: in vivo, mouse; settings: for catalepsy, cannabimimetic effect: 1-100 mg kg^−1 i.p., cumulative, mice
C57BL6/J mice [6] = assay: Triad assay: antinociception; assay type: in vivo, mouse; settings: for antinociception, cannabimimetic effect: 1-100 mg kg^−1 i.p., cumulative, mice
MT1 (ML1A) (h) = target: T8, MT1 (ML1A) (h) (Homo sapiens, UniProt P48039); assay: CEREP panel; assay type: binding; settings: for inhibition at 10 µM: read-out: % inhibition MT1 (ML1A) (h)
T8 construct: CEREP (contract assay)
T8 sequence (P48039 whole entry): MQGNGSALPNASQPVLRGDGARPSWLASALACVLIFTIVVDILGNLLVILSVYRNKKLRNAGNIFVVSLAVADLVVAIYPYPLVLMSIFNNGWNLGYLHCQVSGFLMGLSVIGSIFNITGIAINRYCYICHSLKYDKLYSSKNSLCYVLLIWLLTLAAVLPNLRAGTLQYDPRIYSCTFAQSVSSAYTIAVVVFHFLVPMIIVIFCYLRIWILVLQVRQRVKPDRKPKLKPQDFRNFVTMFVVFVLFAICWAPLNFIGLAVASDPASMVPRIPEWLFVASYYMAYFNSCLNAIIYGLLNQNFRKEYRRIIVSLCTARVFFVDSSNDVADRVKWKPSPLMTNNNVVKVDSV

NK2 (h) = target: T9, NK2 (h) (Homo sapiens, UniProt P21452); assay: CEREP panel; assay type: binding; settings: for % inhibition NK2 (h): 10 µM
T9 construct: CEREP (contract assay)
T9 sequence (P21452 1-398): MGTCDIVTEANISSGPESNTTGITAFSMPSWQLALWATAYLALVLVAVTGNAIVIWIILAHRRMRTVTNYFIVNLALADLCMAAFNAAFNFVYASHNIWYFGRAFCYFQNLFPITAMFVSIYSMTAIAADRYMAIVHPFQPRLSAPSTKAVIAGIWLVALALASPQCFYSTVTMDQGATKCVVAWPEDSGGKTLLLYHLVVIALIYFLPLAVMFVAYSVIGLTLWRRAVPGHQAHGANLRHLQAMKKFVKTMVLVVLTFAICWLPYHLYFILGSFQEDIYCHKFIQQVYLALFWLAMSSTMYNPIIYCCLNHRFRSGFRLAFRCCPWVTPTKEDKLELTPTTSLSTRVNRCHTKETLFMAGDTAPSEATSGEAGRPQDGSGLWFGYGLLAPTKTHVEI

NK3 (h) = target: T10, NK3 (h) (Homo sapiens, UniProt P29371); assay: CEREP panel; assay type: binding; settings: for % inhibition NK3 (h): 10 µM
T10 construct: CEREP (contract assay)
T10 sequence (P29371 1-465): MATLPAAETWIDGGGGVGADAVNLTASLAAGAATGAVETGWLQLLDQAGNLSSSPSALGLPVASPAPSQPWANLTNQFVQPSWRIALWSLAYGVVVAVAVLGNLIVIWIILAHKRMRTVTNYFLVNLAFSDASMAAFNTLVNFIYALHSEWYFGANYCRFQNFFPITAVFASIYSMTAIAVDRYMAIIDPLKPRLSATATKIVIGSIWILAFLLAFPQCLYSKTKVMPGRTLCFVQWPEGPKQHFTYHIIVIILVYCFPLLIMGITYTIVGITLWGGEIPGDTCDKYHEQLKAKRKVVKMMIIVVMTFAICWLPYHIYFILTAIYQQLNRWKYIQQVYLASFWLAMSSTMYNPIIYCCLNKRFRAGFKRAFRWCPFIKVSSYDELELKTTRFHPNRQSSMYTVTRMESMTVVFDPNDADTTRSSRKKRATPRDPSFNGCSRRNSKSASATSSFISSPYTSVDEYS

NOP (ORL1) (h) = target: T11, NOP (ORL1) (h) (Homo sapiens, UniProt P41146); assay: CEREP panel; assay type: binding; settings: for % inhibition NOP (ORL1) (h): 10 µM
T11 construct: CEREP (contract assay)
T11 sequence (P41146 whole entry): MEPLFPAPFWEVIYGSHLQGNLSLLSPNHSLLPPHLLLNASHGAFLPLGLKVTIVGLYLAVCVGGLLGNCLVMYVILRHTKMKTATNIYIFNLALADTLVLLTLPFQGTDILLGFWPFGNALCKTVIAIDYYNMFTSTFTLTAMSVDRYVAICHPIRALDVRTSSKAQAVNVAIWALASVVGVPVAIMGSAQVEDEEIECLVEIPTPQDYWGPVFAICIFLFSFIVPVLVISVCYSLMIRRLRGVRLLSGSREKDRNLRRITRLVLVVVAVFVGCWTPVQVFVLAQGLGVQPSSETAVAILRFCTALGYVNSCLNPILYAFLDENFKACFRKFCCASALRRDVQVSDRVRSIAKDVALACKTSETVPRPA

P2X = assay: CEREP panel; assay type: binding; settings: 10 µM
CCK1 (CCKA) (h) = target: T12, CCK1 (CCKA) (h) (Homo sapiens, UniProt P32238); assay: CEREP panel; assay type: binding
T12 construct: CEREP (contract assay)

physchem = settings: organic solvent or mixture
in vitro [7] = settings: human, hepatocytes
in vitro [8] = settings: C57BL6, mouse, hepatocytes
[9] = Pharmacokinetics, oral administration in rat; assay type: in vivo; settings: p.o.
C5a = target: T13, C5a (Homo sapiens, UniProt P21730); assay: CEREP panel; assay type: binding
T13 construct: CEREP (contract assay)
T13 sequence (P21730 whole entry): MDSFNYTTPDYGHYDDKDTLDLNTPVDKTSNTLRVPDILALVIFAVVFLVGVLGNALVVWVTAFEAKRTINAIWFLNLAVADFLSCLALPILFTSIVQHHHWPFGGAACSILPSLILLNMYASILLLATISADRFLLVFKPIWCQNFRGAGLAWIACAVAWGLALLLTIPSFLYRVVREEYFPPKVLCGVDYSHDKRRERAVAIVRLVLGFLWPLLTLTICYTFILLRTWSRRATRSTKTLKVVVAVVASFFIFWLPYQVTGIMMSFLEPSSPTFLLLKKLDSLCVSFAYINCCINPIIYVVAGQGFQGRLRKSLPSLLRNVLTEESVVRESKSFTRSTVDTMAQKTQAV

MC5 = target: T14, MC5 (Homo sapiens, UniProt P33032); assay: CEREP panel; assay type: binding
T14 construct: CEREP (contract assay)

MCH1 = target: T15, MCH1 (Homo sapiens, UniProt Q99705); assay: CEREP panel; assay type: binding
T15 construct: CEREP (contract assay)

MCH2 = target: T16, MCH2 (Homo sapiens, UniProt Q969V1); assay: CEREP panel; assay type: binding
T16 construct: CEREP (contract assay)
T16 sequence (Q969V1 whole entry): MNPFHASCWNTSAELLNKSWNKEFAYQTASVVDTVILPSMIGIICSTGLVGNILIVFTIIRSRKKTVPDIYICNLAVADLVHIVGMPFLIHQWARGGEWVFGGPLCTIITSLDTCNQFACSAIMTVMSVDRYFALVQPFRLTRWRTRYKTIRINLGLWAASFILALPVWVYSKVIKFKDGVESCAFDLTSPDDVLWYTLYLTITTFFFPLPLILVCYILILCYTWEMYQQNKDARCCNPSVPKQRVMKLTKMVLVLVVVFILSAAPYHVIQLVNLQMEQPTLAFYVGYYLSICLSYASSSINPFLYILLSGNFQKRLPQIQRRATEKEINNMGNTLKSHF

PR = assay: CEREP panel; assay type: binding; settings: 10 µM
[10] = male, C57BL/6J or C57BL/6JRj, mouse, plasma, po, 5 mg/kg
[11] = pretreatment (SR141716A 3 mg kg^−1, HU910 30 mg kg^−1) before HU210 1.7 mg kg^−1

CCCCC/C=C\C/C=C\C/C=C\C/C=C\CCCC(=O)OC(CO)CO [2-AG, 2-arachidonoyl glycerol]
microsomal CLint (in vitro [1]): 13 µL/min/mg

CN1CCCC[C@H]1Cn1cc(C(=O)c2cc([N+](=O)[O-])ccc2I)c2ccccc21 [(S)-AM1241]
% inhibition sigma (non-selective) (h) [2]: 101% | % inhibition 5-HT1A (h) (5-HT1A (h); 10 µM): 74% | % inhibition 5-HT2A (h) (5-HT2A (h)): 67% | % inhibition M4 (h) (M4 (h); 10 µM): 74% | % inhibition H1 (h) (H1 (h)): 78% | Plasma protein binding human: 0.5 %free | Plasma protein binding mouse [3]: 1.2 %free

Cc1c(C(=O)NN2CCCCC2)nn(-c2ccc(Cl)cc2Cl)c1-c1ccc(I)cc1 [AM251]
% inhibition D1 (h) (D1 (h)): 58% | % inhibition FP (h) (FP (h)): 94%

COc1ccc(C(=O)c2c(C)n(CCN3CCOCC3)c3cc(I)ccc23)cc1 [AM630]
% inhibition FP (h) (FP (h)): 66% | % inhibition 5-HT2A (h) (5-HT2A (h)): 70% | % inhibition COX2 (h) (COX2 (h)): 96% | % inhibition Cl- channel (GABA-gated) (Cl- channel (GABA-gated)): 87% | Plasma protein binding mouse [3]: 0.4 %free

CCCCC/C=C\C/C=C\C/C=C\C/C=C\CCCC(=O)NCCO [Anandamide, N-arachidonoylethanolamine]
microsomal CLint (in vitro [1]): 47 µL/min/mg

CCCCCCC(C)(C)c1ccc([C@@H]2C[C@H](O)CC[C@H]2CCCO)c(O)c1 [CP55940]
inhibition at 10 µM (D1 (h)): 77% | inhibition at 10 µM (FP (h)): 100% | inhibition at 10 µM (5-HT1A (h)): 92% | inhibition at 10 µM (5-HT2A (h)): 95% | inhibition at 10 µM (M4 (h)): 55% | microsomal CLint (in vitro [1]): 80 µL/min/mg

Cc1ccc2c(c1)Cc1c(C(=O)NN3CCCCC3)nn(-c3ccc(Cl)cc3Cl)c1-2 [Gp-1a]
% inhibition sigma (non-selective) (h) [2]: 51% | % inhibition D1 (h) (D1 (h)): 63% | % inhibition FP (h) (FP (h)): 88%

CCCCCCC(C)(C)c1cc(OC)c([C@@H]2C=C(CO)[C@@H]3C[C@H]2C3(C)C)c(OC)c1 [HU308]
AUC(0-inf) [4, 10]: 298 ng·h/mL | AUC(0-t) [4, 10]: 253 ng·h/mL | half-life [4, 10]: 3.3 h | Cmax ([4]; male, C57BL/6J or C57BL/6JRj, mouse, plasma, po, 5 mg/kg, p.o., read-out: Cmax): 201 ng/mL | Tmax ([4]; male, C57BL/6J or C57BL/6JRj, mouse, plasma, po, 5 mg/kg, p.o., read-out: Tmax): 0.5 h | AUCinf/dose ([4]; p.o.): 59.7 kg·ng·h/mL/mg | catalepsy, cannabimimetic effect (C57BL6/J mice [5]): did not produce detectable; also recorded: lacked appreciable pharmacological effects | antinociception, cannabimimetic effect (C57BL6/J mice [6]): did not produce detectable; also recorded: lacked appreciable pharmacological effects | inhibition at 10 µM (MT1 (ML1A) (h)): -5% | inhibition at 10 µM (NK2 (h); read-out: % inhibition NK2 (h)): 68% | inhibition at 10 µM (NK3 (h); read-out: % inhibition NK3 (h)): 13% | inhibition at 10 µM (NOP (ORL1) (h); read-out: % inhibition NOP (ORL1) (h)): -5% | % inhibition P2X (P2X): 2% | inhibition at 10 µM (CCK1 (CCKA) (h)): 75% | solubility (physchem): 2.06 µg/mL and 5 µM | hepatocyte CLint (in vitro [7]): 8.3 µL/min/1e6 cells | hepatocyte CLint (in vitro [8]): 4.7 µL/min/1e6 cells

CCCCCCC(C)(C)c1cc(OC)c(C2=C[C@H]3CC[C@]2(CO)C3(C)C)c(OC)c1 [HU910]
AUCinf ([4]; p.o.): 904 ng·h/mL | AUCinf/dose ([4]; p.o.): 301 kg·ng·h/mL/mg | AUClast ([4]; p.o.): 895 ng·h/mL | Cmax ([4]; p.o.): 495 ng/mL | T1/2 ([4]; p.o.): 5.2 h | Tmax ([4]; p.o.): 1.0 h | catalepsy, cannabimimetic effect (C57BL6/J mice [5]): did not produce detectable; also recorded: lacked appreciable pharmacological effects | antagonism of HU210-induced catalepsy (C57BL6/J mice [5]; [11]): did not significantly reduce | antinociception, cannabimimetic effect (C57BL6/J mice [6]): did not produce detectable; also recorded: lacked appreciable pharmacological effects | antagonism of HU210-induced antinociception (C57BL6/J mice [6]; [11]): did not significantly reduce | % inhibition MT1 (ML1A) (h) (MT1 (ML1A) (h); 10 µM): 52% | % inhibition NK2 (h) (NK2 (h)): 31% | % inhibition NK3 (h) (NK3 (h)): 24% | % inhibition NOP (ORL1) (h) (NOP (ORL1) (h)): 4% | % inhibition P2X (P2X): -10% | Plasma protein binding human: 1.8 %free | Plasma protein binding mouse [3]: 4.1 %free

CCCn1c(C)c(C(=O)c2cccc3ccccc23)c2ccccc21 [JWH015]
% inhibition 5-HT2A (h) (5-HT2A (h)): 56%

CCCC(C)(C)c1ccc2c(c1)OC(C)(C)[C@@H]1CC=C(C)C[C@@H]21 [JWH133]
AUCinf/dose [9]: 583 kg·ng·h/mL/mg | AUClast [9]: 3330 ng·h/mL | T1/2 [9]: 2.7 h | Cmax ([9]; 6.0 mg/kg): 2070 ng/mL | Tmax ([9]; 6.0 mg/kg): 1.1 h | catalepsy, cannabimimetic effect (C57BL6/J mice [5]): did not produce detectable; also recorded: lacked appreciable pharmacological effects | antinociception, cannabimimetic effect (C57BL6/J mice [6]): did not produce detectable; also recorded: lacked appreciable pharmacological effects | % inhibition MT1 (ML1A) (h) (MT1 (ML1A) (h); 10 µM): -4% | % inhibition NK2 (h) (NK2 (h)): 36% | % inhibition NK3 (h) (NK3 (h)): -1% | % inhibition NOP (ORL1) (h) (NOP (ORL1) (h)): -5% | % inhibition P2X (P2X): -5% | % inhibition sigma (non-selective) (h) [2]: 2%

Cc1c(C(=O)NN2CCCCC2)nn(-c2ccc(Cl)cc2Cl)c1-c1ccc(Cl)cc1 [SR141716A]
antagonism of HU210-induced catalepsy (C57BL6/J mice [5]; mouse, in vivo): attenuated; also recorded: significantly antagonized | antagonism of HU210-induced antinociception (C57BL6/J mice [6]; mouse, in vivo): attenuated; also recorded: significantly antagonized | inhibition at 10 µM (C5a): 2% | inhibition at 10 µM (MC5): 39% | inhibition at 10 µM (MCH1): -12% | inhibition at 10 µM (MCH2): -3% | inhibition at 10 µM (MT1 (ML1A) (h); 10 µM): 62% | % inhibition PR (PR): 12% | % inhibition Cl- channel (GABA-gated) (Cl- channel (GABA-gated)): 83% | solubility (physchem): 1.23 µg/mL and 2.7 µM | microsomal CLint (in vitro [1]): 20 µL/min/mg | hepatocyte CLint (in vitro [7]): 5.7 µL/min/1e6 cells | hepatocyte CLint (in vitro [8]): 65 µL/min/1e6 cells

Cc1c(C(=O)c2cccc3ccccc23)c2cccc3c2n1[C@H](CN1CCOCC1)CO3 [WIN55212-2]
% inhibition FP (h) (FP (h)): 81% | % inhibition COX2 (h) (COX2 (h)): 50% | Plasma protein binding mouse [3]: 1.0 %free
